# Where two headings read alike, the source gives them in different places.
# Columns and labels:
# [1] = molecular target: T1, rabbit aortic rings (Oryctolagus cuniculus, UniProt P34976); test: Assay B: In Vitro Vascular Smooth Muscle-Response for AII (antagonist activity in rabbit aortic rings); format: cell-based, rabbit (male New Zealand white); conditions: antagonist 10^-5 M for 5 min, AII challenge
# T1 construct: The thoracic aorta was removed, cleaned of adherent fat and connective tissue; from tissue; host or cells: thoracic aorta rings, endothelium removed, male New Zealand white rabbit
# T1 sequence (P34976 1-359): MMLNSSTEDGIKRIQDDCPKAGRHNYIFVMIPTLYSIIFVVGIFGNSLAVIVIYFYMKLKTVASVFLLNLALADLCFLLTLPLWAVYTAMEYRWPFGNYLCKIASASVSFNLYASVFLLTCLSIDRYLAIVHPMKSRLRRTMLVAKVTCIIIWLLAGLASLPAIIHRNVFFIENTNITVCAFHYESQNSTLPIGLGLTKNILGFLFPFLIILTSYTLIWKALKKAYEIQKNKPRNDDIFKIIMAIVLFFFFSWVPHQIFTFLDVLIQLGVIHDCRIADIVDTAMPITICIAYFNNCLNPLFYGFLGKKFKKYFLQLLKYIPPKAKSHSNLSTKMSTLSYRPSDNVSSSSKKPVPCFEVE
# Method: Assay B: In Vitro Vascular Smooth Muscle-Response for AII The compounds of the invention were tested for antagonist activity in rabbit aortic rings. Male New Zealand white rabbits (2-2.5 kg) were sacrificed using an overdose of pentobarbital and exsanguinated via the carotid arteries. The thoracic aorta was removed, cleaned of adherent fat and connective tissue and then cut into 3-mm ring segments. The endothelium was removed from the rings by gently sliding a rolled-up piece of filter paper into the vessel lumen. The rings were then mounted in a water-jacketed tissue bath, maintained at 37° C., between moveable and fixed ends of a stainless steel wire with the moveable end attached to an FT03 Grass transducer coupled to a Model 7D Grass Polygraph for recording isometric force responses. The bath was filled with 20 ml of oxygenated (95% oxygen/5% carbon dioxide) Krebs solution of the following composition (mM): 130 NaCl, 15 NaHCO3, 15 KCl, 1.2 NaH2 PO4, 1.2 MgSO4, 2.5 CaCl2, and 11.4 glucose. The preparations were equilibrated for one hour before approximately one gram of passive tension was placed on the rings. Angiotensin II concentration-response curves were then recorded (3×10^-10 to 1×10^-5 M). Each concentration of AII was allowed to elicit its maximal contraction, and then AII was washed out repeatedly for 30 minutes before rechallenging with a higher concentration of AII. Aorta rings were exposed to the test antagonist at 10^-5 M for 5 minutes before challenging with AII. Adjacent segments of the same aorta ring were used for all concentration-response curves in the presence or absence of the test antagonist. The effectiveness of the test compound was expressed in terms of pA2 values and were calculated according to H.O. Schild [Br. J. Pharmacol. Chemother., 2, 189-206 (1947)]. The pA2 value is the concentration of the antagonist which increases the EC50 value for AII by a factor of two. Each test antagonist was evaluated in aorta rings from two rabbits.
# [2] = molecular target: smooth muscle angiotensin II receptor; test: Assay A: Angiotensin II Binding Activity (displacement of 125I-AII, rat uterine membrane preparation); conditions: rat uterine membranes, 25 °C, 60 min; read-out: IC50 (50% displacement of total specifically bound 125I-AII)
# Method: Assay A: Anaiotensin II Binding Activity
# Compounds of the invention were tested for ability to bind to the smooth muscle angiotensin II receptor using a rat uterine membrane preparation. Angiotensin II (AII) was purchased from Peninsula Labs. ^125 I-angiotensin II (specific activity of 2200 Ci/mmol) was purchased from Du Pont-New England Nuclear. Other chemicals were obtained from Sigma Chemical Co. This assay was carried out according to the method of Douglas et al [Endocrinology, 106, 120-124 (1980)]. Rat uterine membranes were prepared from fresh tissue. All procedures were carried out at 4° C. Uteri were stripped of fat and homogenized in phosphate-buffered saline at pH 7.4 containing 5 mM EDTA. The homogenate was centrifuged at 1500×g for 20 min., and the supernatant was recentrifuged at 100,000×g for 60 min. The pellet was resuspended in buffer consisting of 2 mM EDTA and 50 mM Tris-HCl (pH 7.5) to a final protein concentration of 4 mg/ml. Assay tubes were charged with 0.25 ml of a solution containing 5 mM MgCl2, 2 mM EDTA, 0.5% bovine serum albumin, 50 mM Tris-HCl, pH 7.5 and ^125 I-AII (approximately 10^5 cpm) in the absence or in the presence of unlabelled ligand. The reaction was initiated by the addition of membrane protein and the mixture was incubated at 25° C. for 60 min. The incubation was terminated with ice-cold 50 mM Tris-HDl (pH 7.5) and the mixture was filtered to separate membrane-bound labelled peptide from the free ligand. The incubation tube and filter were washed with ice-cold buffer. Filters were assayed for radioactivity in a Micromedic gamma counter. Nonspecific binding was defined as binding in the presence of 10 μM of unlabelled AII. Specific binding was calculated as total binding minus nonspecific binding. The receptor binding affinity of an AII antagonist compound was indicated by the concentration (IC50) of the tested AII antagonist which gives 50% displacement of the total specifically bound ^125 I-AII from the high affinity AII receptor. Binding data were analyzed by a nonlinear least-squares curve fitting program.
# [3] = first of two rabbits, read-out: pA2 (first value) (converted)
# [4] = second of two rabbits, read-out: pA2 (converted)
Structure (SMILES),"Kb [1, 3] [µM]","Kb [1, 4] [µM]",IC50 [2] [µM]
"CCCCc1nc(C(=O)NC)nn1Cc1ccc(-c2ccccc2-c2nnn[nH]2)nc1 [Example 19, 5-[2-[5-[[3-(N-methylamido)-5-butyl-1H-1,2,4-triazol-1-yl)methyl]-2-pyridinyl]phenyl]-1H-tetrazole]",0.234,0.209,0.16
"CCCCc1nc(CCCC)n(Cc2ccc(-c3cnccc3-c3nnn[nH]3)cc2)n1 [Example 6, 5-[3-[4-[(3,5-dibutyl-1H-1,2,4-triazol-1-yl)methyl]phenyl]-4-pyridinyl]-1H-tetrazole]",0.0676,0.0676,0.15
"CCCCc1nc(CC(CC)CC)n(Cc2ccc(-c3ccccc3-c3nnn[nH]3)nc2)n1 [Example 14, 5-[2-[5-[[3-butyl-5-(2-ethylbutyl)-1H-1,2,4-triazol-1-yl)methyl]-2-pyridinyl]phenyl]-1H-tetrazole]",,,0.013
"CCCCc1nc(-c2ccccc2OC)n(Cc2ccc(-c3ccccc3-c3nnn[nH]3)nc2)n1 [Example 28, 5-[2-[5-[[3-butyl-5-(2-methoxyphenyl)-1H-1,2,4-triazol-1-yl)methyl]-2-pyridinyl]phenyl]-1H-tetrazole]",,,0.29
"CCCCc1nc(-c2c(F)cccc2F)n(Cc2ccc(-c3ccccc3-c3nnn[nH]3)nc2)n1 [Example 32, 5-[2-[5-[[3-butyl-5-(2,6-difluorophenyl)-1H-1,2,4-triazol-1-yl)methyl]-2-pyridinyl]phenyl]-1H-tetrazole]",,,0.021
"CCCCc1nc(CC(CC)CC)nn1Cc1ccc(-c2ccccc2-c2nnn[nH]2)nc1 [Example 13, 5-[2-[5-[[3-(2-ethylbutyl)-5-butyl-1H-1,2,4-triazol-1-yl)methyl]-2-pyridinyl]phenyl]-1H-tetrazole]",,,0.025
"CCCCc1nc(-c2ccccc2OC)nn1Cc1ccc(-c2ccccc2-c2nnn[nH]2)nc1 [Example 27, 5-[2-[5-[[3-(2-methoxyphenyl)-5-butyl-1H-1,2,4-triazol-1-yl)methyl]-2-pyridinyl]phenyl]-1H-tetrazole]",,,0.11
"CCCCc1nc(-c2ccccc2C)n(Cc2ccc(-c3ccccc3-c3nnn[nH]3)nc2)n1 [Example 24, 5-[2-[5-[[3-butyl-5-(2-methylphenyl)-1H-1,2,4-triazol-1-yl)methyl]-2-pyridinyl]phenyl]-1H-tetrazole]",,0.603,0.53
"CCCCc1nc(-c2ccccc2)nn1Cc1ccc(-c2ccccc2-c2nnn[nH]2)nc1 [Example 21, 5-[2-[5-[(3-phenyl-5-butyl-1H-1,2,4-triazol-1-yl)methyl]-2-pyridinyl]phenyl]-1H-tetrazole]",,,0.054
"CCCCc1nc(CCCC)n(Cc2ccc(-c3ccncc3-c3nnn[nH]3)cc2)n1 [Example 5, 5-[4-[4-[(3,5-dibutyl-1H-1,2,4-triazol-1-yl)methyl]phenyl]-3-pyridinyl]-1H-tetrazole]",,,0.25
"CCCCc1nc(CCCC)n(Cc2ccc(-c3cccnc3-c3nnn[nH]3)cc2)n1 [Example 4, 5-[3-[4-[(3,5-dibutyl-1H-1,2,4-triazol-1-yl)methyl]phenyl]-2-pyridinyl]-1H-tetrazole]",0.0776,0.251,0.11
"CCCCc1nc(CCCC)n(Cc2ccc(-c3ncccc3-c3nnn[nH]3)cc2)n1 [Example 7, 5-[2-[4-[(3,5-dibutyl-1H-1,2,4-triazol-1-yl)methyl]phenyl]-3-pyridinyl]-1H-tetrazole]",0.229,0.0912,0.098
"CCCCc1nc(-c2ccccc2C)nn1Cc1ccc(-c2ccccc2-c2nnn[nH]2)nc1 [Example 23, 5-[2-[5-[[3-(2-methylphenyl)-5-butyl-1H-1,2,4-triazol-1-yl)methyl]-2-pyridinyl]phenyl]-1H-tetrazole]",,,0.018
"CCCCc1nc(-c2ccccc2C(C)C)nn1Cc1ccc(-c2ccccc2-c2nnn[nH]2)nc1 [Example 25, 5-[2-[5-[[3-(2-isopropylphenyl)-5-butyl-1H-1,2,4-triazol-1-yl)methyl]-2-pyridinyl]phenyl]-1H-tetrazole]",,,0.057
"CCCCc1nc(CCc2ccccc2)nn1Cc1ccc(-c2ccccc2-c2nnn[nH]2)nc1 [Example 15, 5-[2-[5-[[3-(2-phenylethyl)-5-butyl-1H-1,2,4-triazol-1-yl)methyl]-2-pyridinyl]phenyl]-1H-tetrazole]",,,0.0026
"CCCCc1nc(-c2ccccc2C(C)C)n(Cc2ccc(-c3ccccc3-c3nnn[nH]3)nc2)n1 [Example 26, 5-[2-[5-[[3-butyl-5-(2-isopropylphenyl)-1H-1,2,4-triazol-1-yl)methyl]-2-pyridinyl]phenyl]-1H-tetrazole]",,,0.011
"CCCCc1nc(CCCC)n(Cc2ccc(-c3ccccc3C(=O)O)nc2)n1 [Example 2, 2-[5-[(3,5-dibutyl-1H-1,2,4-triazol-1-yl)methyl]-2-pyridinyl]benzoic acid]",,,0.12
"CCCCc1nc(CCc2ccccc2)n(Cc2ccc(-c3ccccc3-c3nnn[nH]3)nc2)n1 [Example 16, 5-[2-[5-[[3-butyl-5-(2-phenylethyl)-1H-1,2,4-triazol-1-yl)methyl]-2-pyridinyl]phenyl]-1H-tetrazole]",,,0.072
"CCCCc1nc(-c2ccccc2)n(Cc2ccc(-c3ccccc3-c3nnn[nH]3)nc2)n1 [Example 22, 5-[2-[5-[(3-butyl-5-phenyl-1H-1,2,4-triazol-1-yl)methyl]-2-pyridinyl]phenyl]-1H-tetrazole]",,,0.22
"CCCCc1nc(C(=O)NC)n(Cc2ccc(-c3ccccc3-c3nnn[nH]3)nc2)n1 [Example 20, 5-[2-[5-[[3-butyl-5-(N-methylamido)-1H-1,2,4-triazol-1-yl)methyl]-2-pyridinyl]phenyl]-1H-tetrazole]",0.145,0.145,0.35
"CCCCc1nc(-c2c(F)cccc2F)nn1Cc1ccc(-c2ccccc2-c2nnn[nH]2)nc1 [Example 31, 5-[2-[5-[[3-(2,6-difluorophenyl)-5-butyl-1H-1,2,4-triazol-1-yl)methyl]-2-pyridinyl]phenyl]-1H-tetrazole]",,,0.0097
"CCCc1nc(CCC)n(Cc2ccc(-c3ccccc3-c3nnn[nH]3)nc2)n1 [Example 8, 5-[2-[5-[(3,5-dipropyl-1H-1,2,4triazol-1-yl)methyl]-2-pyridinyl]phenyl]-1H-tetrazole]",0.0347,0.0257,0.072
